The values below are quoted from earlier work in patent US6537758B2, “Method for isolating nucleic acid from micronuclei separated from a cell” (The Salk Institute for Biological Studies, priority 1995, dated 2003).

The subject of one data set is HL60 cells. Particulars: low concentrations of HU.
For data set [1], the system named is mouse cells with unstably amplified dihydrofolate reductase (DHFR) genes.

Turning to `NC(=O)NO` [hydroxyurea], the “elimination of genes amplified on DMs” value in the data set on cells containing DMs (HU at concentrations that do not inhibit DNA synthesis or ribonucleotide reductase) is listed as “eliminated”. For the same compound, in the data set on cells containing DMs (HU-treatment of cells containing DMs), the micronuclei formation result was “increase in micronuclei formation”. For the same compound, in the data set with HL60 cells, the c-myc expression entry is listed as “decreased c-myc expression”, the differentiation entry is reported as “induction of differentiation” and the “number of c-myc-containing DMs” value is given as “reduced the number of c-myc-containing DMs”. Further, the “rate of loss of unstably amplified DHFR genes” value in data set [1] is given as “increase the rate of loss”.
